Among the data in ChEMBL document CHEMBL5096192, “Recent advancements in anti-leishmanial research: Synthetic strategies and structural activity relationships” (Eur J Med Chem, 2021) are IC50, inhibition and CC50 values, retold here.

The test system of series [1] is Leishmania amazonensis. The series can be described thus: Antileishmanial activity against promastigote form of Leishmania amazonensis MHOM/BR/79/Maria assessed as inhibition of parasite growth measured after 48 hrs by resazurin staining based fluorescence analysis. The format is functional, organism-based.
For series [2], the system named is Leishmania infantum. The series can be described thus: Antileishmanial activity against promastigote form of Leishmania infantum MCAN/ES/92/BCN83 assessed as inhibition of parasite growth measured after 48 hrs by resazurin staining based fluorescence analysis. The format is functional, organism-based. The conditions noted are these: MCAN/ES/92/BCN83, 48 h.
The subject of series [3] is Leishmania amazonensis. The series can be described thus: Antileishmanial activity against Leishmania amazonensis MHOM/BR/79/Maria intracellular amastigotes infected in mouse J774 macrophages assessed as inhibition of parasite growth incubated for 48 hrs by fluorometric analysis. The format is functional, organism-based. The conditions noted are these: J774, 48 h.
Series [4] concerns Leishmania infantum. The series can be described thus: Antileishmanial activity against Leishmania infantum MCAN/ES/92/BCN83 intracellular amastigotes infected in mouse J774 macrophages assessed as inhibition of parasite growth incubated for 48 hrs by fluorometric analysis. The format is functional, organism-based. To be noted: MCAN/ES/92/BCN83, J774, 48 h.
Series [5] deals with Leishmania donovani. The series can be described thus: Antileishmanial activity against promastigote form of Leishmania donovani MHOM/IN/80/Dd8 transfected with firefly luciferase gene assessed as parasite growth inhibition incubated for 96 hrs by Steady Glo reagent based luminescence assay. The format is functional, organism-based. The conditions noted are these: MHOM/IN/80/Dd8, 96 h.

Series [6] deals with Trypanothione reductase (Leishmania donovani) (UniProt P39050). The series can be described thus: Inhibition of Leishmania donovani trypanothione reductase expressed in Escherichia coli BL21(DE3) using TS2 and NADPH as substrate at 100 uM preincubated for 5 mins followed by substrate addition by DTNB-reagent based spectrophotometric method.
Chain of Trypanothione reductase (Leishmania donovani) (P39050 whole entry): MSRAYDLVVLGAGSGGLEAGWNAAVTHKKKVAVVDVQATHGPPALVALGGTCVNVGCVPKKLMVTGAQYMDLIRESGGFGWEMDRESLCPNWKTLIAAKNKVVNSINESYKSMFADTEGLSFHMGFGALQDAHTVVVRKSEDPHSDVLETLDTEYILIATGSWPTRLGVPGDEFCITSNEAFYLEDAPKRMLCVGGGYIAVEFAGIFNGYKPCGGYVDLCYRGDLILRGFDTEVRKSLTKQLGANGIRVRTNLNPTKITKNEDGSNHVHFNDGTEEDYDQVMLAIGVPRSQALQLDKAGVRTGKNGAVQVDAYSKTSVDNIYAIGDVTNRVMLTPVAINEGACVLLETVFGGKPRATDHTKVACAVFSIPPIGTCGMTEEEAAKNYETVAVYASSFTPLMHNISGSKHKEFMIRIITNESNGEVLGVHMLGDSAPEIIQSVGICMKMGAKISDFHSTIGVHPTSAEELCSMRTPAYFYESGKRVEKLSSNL
Series [7] relates to Leishmania donovani. The series can be described thus: Antileishmanial activity against Leishmania donovani MHOM/IN/80/Dd8 intracellular amastigotes transfected with firefly luciferase gene infected in mouse J774.A1 cells assessed as parasite growth inhibition incubated for 96 hrs by Steady Glo reagent based luminescence assay. The format is functional, organism-based. The conditions noted are these: MHOM/IN/80/Dd8, J774.A1, 96 h.

Series [8] concerns Leishmania donovani. The series can be described thus: Antileishmanial activity against Leishmania donovani Bob intracellular amastigotes assessed as parasite growth inhibition incubated for 72 hrs by LDH assay. The format is functional, organism-based.
Series [9] deals with Leishmania infantum. The series can be described thus: Antileishmanial activity against Leishmania infantum MHOM/MA/67/ITMAP263 intracellular amastigotes infected in mouse bone marrow derived macrophage cells assessed as parasite growth inhibition measured after 24 hrs by DAPI staining based microscopic analysis. The format is functional, organism-based. The conditions noted are these: MHOM/MA/67/ITMAP263, Macrophage.

Series [10] can be described thus: Cytotoxicity against mouse bone marrow-derived macrophage cells assessed as reduction in cell viability measured after 24 hrs by resazurin assay. The format is toxicity, cell-based, BMDM. To be noted: bone marrow-derived macrophages. On the technique in general: The colour change of resazurin is a common sign of viable cells or microbes.

For `FC(F)(F)c1nc2cc(Cl)c(Cl)cc2[nH]1`, the IC50 in series [1] was determined as 4.11 µM; in series [2], 8.63 µM; in series [3], 9 µM; in series [4], 15.8 µM.
On to `C=C(C1c2[nH]c3ccccc3c2CCN1C(=O)OC(C)(C)C)N(CC(=O)NC(C)(C)C)Cc1ccc(C)cc1` (stereo unspecified), for which, in series [5], the IC50 was 0.06 µM. In series [6], this compound gave an inhibition of 53%.
In the case of `CCOC(=O)c1cc2c([nH]c3ccccc32)c(C(C(=O)NC(C)(C)C)N(Cc2ccc(CC)cc2)C(=O)c2ccccc2)n1` (stereo unspecified), the IC50 in series [7] turned out to be 2.43 µM. For the same compound, in series [6], the inhibition turned out to be 87%.
For `COC(=O)C(N)Cc1c[nH]c2ccccc12` (stereo unspecified), in [8], the IC50 stood at 18.2 µM.
Consider `CCCCCCCCNCc1ccc2c(c1)C(=O)CC(C)(C)O2`, for which the IC50 in series [9] was 24.6 µM. In addition, in series [10], the CC50 at 24 h is 40.2 µM.

In general, IC50 refers to the point on the concentration scale where inhibition reaches its midpoint. For orientation: inhibition means the change of the read-out against control, counted positive when it falls. The term CC50 denotes the concentration giving 50% cytotoxicity.
